Patent publication US6310095A, “Inhibitors of protein isoprenyl transferases” (University of Pittsburgh, priority 1998, dated 2001)
Where a name gives a salt, the structure may show the parent alone. Blank lines part the entries; values can stand above or below the compound they belong to.

Biological target: T1, protein farnesyltransferase (Rattus norvegicus, UniProt Q02293+Q04631)
T1 construct: Rat brain protein farnesyltransferase activity is measured; from tissue; host or cells: rat brain; purified according to Reiss et al., Cell 62:81-88 (1990), steps one through three
Assay: in vitro inhibition of protein farnesyltransferase (scintillation proximity assay, biotin-K Ras B fragment)
Format: biochemical
How it was run: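 Rat brain enzyme, purified through three steps, in a scintillation proximity assay kit with biotin-K Ras B fragment substrate at 0.1 mM final. Value is % inhibition of farnesylation.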

[1] = at 1 × 10^-8 M, read-out: % inhibition of farnesyltransferase

- inhibition at 1 µM (at 1 × 10^-6 M, read-out: % inhibition of farnesyltransferase): 64%
Compound: CSCC[C@H](NC(=O)c1ccc(CN(C)C(C)(C)Cc2ccccc2)cc1-c1ccccc1C)C(=O)O [Example 982, N-[4-(N-Methyl-N-(1,1-dimethyl-2-phenylethyl)aminomethyl)-2-(2-methylphenyl)-benzoyl]methionine lithium salt]

- % inhibition of farnesyltransferase (at 1 × 10^-8 M): 89%
Compound: CCCCC(OCc1ccc(C(=O)N[C@@H](CCSC)C(=O)O)c(-c2ccccc2C)c1)c1cncs1 (some centres unmarked) [Example 985]

- inhibition at 0.01 µM [1]: 95%
Compound: CSCC[C@H](NC(=O)c1ccc(CN(CCC2CCCCC2)Cc2cncs2)cc1-c1ccccc1C)C(=O)O [Example 986]

- % inhibition of farnesyltransferase (at 1 × 10^-6 M): 93%
Compound: CSCC[C@H](NC(=O)c1ccc(COC2CCN(Cc3ccccc3)C2)cc1-c1ccccc1C)C(=O)O (some centres unmarked) [Example 987]

- % inhibition of farnesyltransferase (at 1 × 10^-6 M): 92%
Compound: CSCC[C@H](NC(=O)c1ccc(CN2CCC(OCc3ccccc3)C2)cc1-c1ccccc1C)C(=O)O (some centres unmarked) [Example 988]

- % inhibition of farnesyltransferase (at 1 × 10^-8 M): 83%
Compound: CSCC[C@H](NC(=O)c1ccc(CO[C@H](CSC(C)(C)C)Cc2ccccc2)cc1-c1ccccc1C)C(=O)O [Example 994]

- inhibition at 0.01 µM [1]: 92%
Compound: CCSC[C@H](CCc1ccccc1)NCc1ccc(C(=O)N[C@@H](CCSC)C(=O)O)c(-c2ccccc2C)c1 [Example 995]

- inhibition at 0.01 µM [1]: 80%
Compound: CCCCS(=O)(=O)N(Cc1ccc(C(=O)N[C@@H](CCSC)C(=O)O)c(-c2ccccc2C)c1)CC1CCCCC1 [Example 996, N-[4-(N-cyclohexylmethyl-N-butanesulfonylaminomethyl)-2-(2-methylphenyl)benzoyl]methionine]

Continued, compound first:

Compound: CSCC[C@H](NC(=O)c1ccc(CN2CCCC(OCc3ccccc3)C2)cc1-c1ccccc1C)C(=O)O (some centres unmarked) [Example 989]
- % inhibition of farnesyltransferase (at 1 × 10^-6 M): 88%

Compound: CSCC[C@H](NC(=O)c1ccc(CN2CCCC(OCC3CCCCC3)C2)cc1-c1ccccc1C)C(=O)O (some centres unmarked) [Example 990]
- % inhibition of farnesyltransferase (at 1 × 10^-7 M): 84%

Compound: CSCC[C@H](NC(=O)c1ccc(CN2CCC[C@H]2COc2ccccc2)cc1-c1ccccc1C)C(=O)O [Example 991]
- % inhibition of farnesyltransferase (at 1 × 10^-8 M): 69%

Compound: CSCC[C@H](NC(=O)c1ccc(CN2CCC[C@H]2COCC2CCCCC2)cc1-c1ccccc1C)C(=O)O [Example 992]
- % inhibition of farnesyltransferase (at 1 × 10^-8 M): 93%

Compound: CSCC[C@H](NC(=O)c1ccc(CN2CCC[C@@H]2COCc2ccccc2)cc1-c1ccccc1C)C(=O)O [Example 993]
- % inhibition of farnesyltransferase (at 1 × 10^-7 M): 90%

Compound: N-[4-(3-furan-2-yl-2-phenylprop-2-en-1-ylaminomethyl)-2-(2-methylphenyl)benzoyl]methionine lithium salt [Example 537]
- % inhibition of farnesyltransferase (at 1 × 10^-6 M): 97%
